The results in this text go back to patent US20160090555A1, “CLEANING AND/OR TREATMENT COMPOSITIONS COMPRISING MALODOR REDUCTION COMPOSITIONS” (The Procter & Gamble Company, priority 2014, published 2016).

Assay [1] can be described thus: Fragrance Fidelity Index (FFI), expert graders, treated fabric swatch against ethyl vanillin reference scale. From the text:
Blocker materials suitable for use in cleaning and/or treatment compositions of the present invention are chosen for their ability to decrease malodor, while not interfering with perception of a fragrance. Material selection is done by assigning two indices to a test sample material from two reference scales in order to rank odor strengths. The two reference scales are the Fragrance Fidelity Index (FFI) scale and the Blocker Index (BI) scale. The FFI ranks the ability of the test sample material to impart a perceivable odor which could cause interference when combined with another fragrance and the BI ranks the ability of the test sample material to reduce malodor perception. The two methods for assigning the indices to a test sample on the FFI and the BI reference scales are given below. The first step in the method for assigning an FFI to the test samples on the FFI reference scale is to create the FFI reference swatches. […] Fabric swatches for this test are white knit polycotton (4 inch×4 inch) swatches from EMC ordered as PC 50/50. The supplier is instructed to strip the swatches first, stripping involves washing twice with a fragrance-free detergent and rinsing three times. […] This will create a sensory scale of three swatches with three different odor levels based on the concentration of the solution pipetted onto the swatch. […] A clean untreated swatch is also included as the lowest anchor point of reference for odor strength on the FFI scale. […] The swatches are used as scale anchor points when graders evaluate a test sample(s) and are assigned a Fragrance Fidelity Index (FFI) as show in Table 7. […] This should be done prior to evaluating the test sample material treated swatch. […] At least two perfumers/expert graders are used to assign an FFI grade to a test sample.

Assay [2] can be described thus: Blocker Index (BI), expert graders, isovaleric acid malodorous swatch. The arrangement: key: Blocker Index, 0–3 scale anchored by reference swatches (0 = clean swatch). The source says: Blocker materials suitable for use in cleaning and/or treatment compositions of the present invention are chosen for their ability to decrease malodor, while not interfering with perception of a fragrance. Material selection is done by assigning two indices to a test sample material from two reference scales in order to rank odor strengths. The two reference scales are the Fragrance Fidelity Index (FFI) scale and the Blocker Index (BI) scale. The FFI ranks the ability of the test sample material to impart a perceivable odor which could cause interference when combined with another fragrance and the BI ranks the ability of the test sample material to reduce malodor perception. The two methods for assigning the indices to a test sample on the FFI and the BI reference scales are given below.
The first step in the method for assigning a BI to a test sample material on the BI reference scale is to create the BI reference swatches. […] Fabric swatches for this test are white knit polycotton (4 inch×4 inch) swatches from EMC ordered as PC 50/50. The supplier is instructed to strip the swatches first, stripping involves washing twice with a fragrance-free detergent and rinsing three times.
The BI scale contains one clean swatch with no malodor applied. […] These solutions are pipetted to the middle of the swatches. […] After drying for 30 minutes in a vented hood, the swatches are wrapped in aluminum foil to prevent odor contamination to the treated swatch. A clean untreated swatch is also included as the lowest anchor point of reference for malodor strength on the BI scale. The BI reference scale swatches should be used within 0.5 to 12 hours and discarded after 12 hours. The swatches are used as scale anchor points when graders evaluate a test sample(s) and are assigned a Blocker Index (BI) as show in Table 12.
The perfumer/expert grader is asked to rank order swatches according to a scale between 0 and 3.
The reference swatches represent the 0, 1, 2, and 3 BIs on the BI reference scale, Table 12. The expert grader should familiarizes him/herself with the strength of the odor on the BI reference swatches by sniffing each one starting at 0 (the lowest odor strength) and ending at 3 (the highest odor strength). This should be done prior to evaluating the swatch treated with the test material.
To evaluate the BI, the test material is applied to a malodorous swatch to determine how well the test material blocks the malodor. […] After drying the malodorous swatch a known concentration of test material solution, between 1 ppm and 100 ppm is pipetted onto the malodorous swatch. […] It is sometimes necessary to evaluate several levels of the test material between about 1 and about 100 ppm to determine the BI.
At least two perfumers/expert graders are used to assign the BI to the test sample. […] The test sample swatch is assigned a BI at or between numbers on the BI in table.

Where [3] appears, read: test material at 10 ppm on isovaleric acid malodorous swatch.
[4] abbreviates: test material at 50 ppm on isovaleric acid malodorous swatch.

As for `CC1(C)C2CCC3(C2)C1C(=O)CCC3(C)C` (centres unmarked) [Material 1149], the FFI in assay [1] (Conc 10 ppm) came out at 0; in assay [1] (Conc 50 ppm), 0.8. Also, the BI turned out to be 1.5 in assay [2] (Conc 10 ppm) and 2.3 in assay [2] (Conc 50 ppm).
`CCCCCCCCCCCC(=O)OCC` [Material 391] registered an FFI in assay [1] (Conc 50 ppm) of 0.3. Moreover, in assay [2] (Conc 50 ppm), the BI was 2.2.
For the compound `CC1(C)CCc2ccc(CCC=O)cc21` [Material 261], the FFI in assay [1] (Conc 10 ppm) is on record as 0; in assay [1] (Conc 50 ppm), 1.3. The BI in assay [2] (Conc 10 ppm) stood at 1.8; in assay [2] (Conc 50 ppm), 1.3.
Consider `CCCCCCCCCCCCO` [Material 174], for which the FFI in assay [1] (Conc 50 ppm) is on record as 0.5. For the same compound, the BI in assay [2] (Conc 50 ppm) was 2.3.
Take `CCC(=O)OC1CC2C3C=CCC3C1C2(C)C` (centres unmarked) [8,8-dimethyl-3a,4,5,6,7,7a-hexahydro-1H-4,7-methanoinden-6-yl propionate]: the BI in assay [2] (setting [3]) is given as 1.5; in assay [2] (setting [4]), 2.2.
As for `CCCCCCCCCCCO` [Undecanol], the FFI in assay [1] (Conc 50 ppm) is listed as 0.8. In assay [2] (Conc 50 ppm), the BI is reported as 2.3.
In the case of `CC1(C)CCc2ccc(CCC=O)cc21`, the results for the BI in assay [2] (setting [3]) and in assay [2] (setting [4]) were 1.5 and 2.7, respectively.
Take `O=C1CCC2CCCCC2O1` (centres unmarked) [3,4,4a,5,6,7,8,8a-octahydrochromen-2-one]: the FFI in assay [1] (Conc 10 ppm) and in assay [1] (Conc 50 ppm) was 0 in each case. Further, the BI in assay [2] (Conc 10 ppm) and in assay [2] (Conc 50 ppm) was 2.0 in each case.
In turn, `C=C1CCC2OC2(C)CCC2C1CC2(C)C` (centres unmarked) [Material 1148] yielded an FFI in assay [1] (Conc 50 ppm) of 0.5. Also, the BI in assay [2] (Conc 50 ppm) amounted to 2.3.
On to `CCC(O)COC1CCCCC1C(C)(C)C` (centres unmarked) [Material 677], for which the FFI in assay [1] (Conc 10 ppm) was 0; in assay [1] (Conc 50 ppm) it was 1.8. Also, the BI is 2.3 in assay [2] (Conc 10 ppm) and 2.0 in assay [2] (Conc 50 ppm).
In the same order, the values of `CC(=O)OC1CC2CC1C1CC=CC21` (centres unmarked) [Material 281] are 0, 0.5, 2.0 and 2.0.
As to `CC1CCC2(C(C)C)CC(C)OC2C1` (centres unmarked), the BI was 2.0 in assay [2] (setting [3]) and 2.2 in assay [2] (setting [4]).
Regarding `CCOC(=O)OC1C(C)CCC(C)C1C` (centres unmarked) [Material 1005], in assay [1] (Conc 50 ppm), the FFI is 0.5. The compound further displayed a BI in assay [2] (Conc 50 ppm) of 2.6.
Consider `CC(C)(C)C1CCCCC1` [4-tert-butyl cyclohexane], for which the FFI in assay [1] (Conc 10 ppm) is reported as 0; in assay [1] (Conc 50 ppm) it was 0.3. Also, the BI in assay [2] (Conc 10 ppm) and in assay [2] (Conc 50 ppm) was 2.0 in each case.
In the case of `CC(CCO)CCc1ccccc1` (centres unmarked) [Material 962], the FFI in assay [1] (Conc 10 ppm) is listed as 0; in assay [1] (Conc 50 ppm), 0.5. The BI in assay [2] (Conc 10 ppm) is on record as 2.3; in assay [2] (Conc 50 ppm), 1.7.
Consider `CC(=O)OCCCCCCC(C)C` [Material 204], for which the FFI in assay [1] (Conc 10 ppm) and in assay [1] (Conc 50 ppm) was 0 in each case. For the same compound, the figures for the BI in assay [2] (Conc 10 ppm) and in assay [2] (Conc 50 ppm) were 2.0 and 2.7, respectively.
Regarding `CCCCCCCCCCCCCCCC(=O)OC` [Material 109], the BI in assay [2] (Conc 10 ppm) turned out to be 2.0.
For the compound `COC(=O)OC1CC/C=C\CCC1` (centres unmarked) [Material 1139], the FFI in assay [1] (Conc 10 ppm) is listed as 0; in assay [1] (Conc 50 ppm) it was 1.0. Further, the BI in assay [2] (Conc 10 ppm) is listed as 2.0; in assay [2] (Conc 50 ppm), 2.7.
`C=CC(C)=CCC=C(C)C` [Material 524] displayed an FFI in assay [1] (Conc 50 ppm) of 0. Moreover, in assay [2] (Conc 50 ppm), the BI was 2.8.
As for `CC(C)CC(=O)O` [isovaleric acid, reference compound], the “BI grade of reference swatch, Ave” value in assay [2] (2 μL 0.08% isovaleric acid, all graders (Table 10)) was 1.0.
